# Patent US20170073337A1, “DIHYDROTHIAZINE AND DIHYDROOXAZINE DERIVATIVES HAVING BACE1 INHIBITORY ACTIVITY” (Shionogi & Co., Ltd., priority 2014, published 2017)
# Like-named read-outs stand apart in the source and are kept apart here.
# Columns and labels:
# [1] = biological target: T1, human ether-a-go-go related gene (hERG) channel (Homo sapiens, UniProt Q12809); experiment: hERG test; format: cell-based; conditions: % inhibition of IKr tail peak current at 3 uM; CHO cells expressing hERG
# T1 construct: expressed in transfected cells; host or cells: CHO cells
# How it was run: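 IKr was recorded from hERG-expressing CHO cells by automated whole-cell patch clamp at a holding potential of −80 mV. A −50 mV leak step was followed by a 2 s depolarization to +20 mV and a 2 s repolarization to −50 mV, when current was measured.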
# Metabolic stability test = format: in vitro ADME; conditions: human liver microsomes, 37° C., 30 minutes, NADPH
# How it was run: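 Parent compound was measured by LC/MS/MS or SPE/MS after a methanol/acetonitrile quench and reported as % remaining, with the 0 min sample set to 100%. Incubations ran 30 min at 37 °C in pH 7.4 Tris buffer containing pooled human liver microsomes at 0.5 mg protein/mL and 1 mmol/L NADPH.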
# CYP2C19 = biological target: T2, CYP2C19 (Homo sapiens, UniProt P33261); experiment: CYP inhibition test (CYP2C19); format: in vitro ADME; conditions: pooled human liver microsomes; mephenytoin 4′-hydroxylation
# T2 construct: The commercially available pooled human liver microsomes are used as an enzyme resource; from tissue; host or cells: pooled human liver microsomes
# How it was run: (§1)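 Metabolite formation was quantified by LC/MS/MS: dextrorphan (2D6, 5 μmol/L dextromethorphan), terfenadine alcohol (3A4, 1 μmol/L terfenadine), 4′-hydroxymephenytoin (2C19, 50 μmol/L S-mephenytoin) and hydroxytolbutamide (2C9, 100 μmol/L tolbutamide). Reactions used NADPH-started pooled human liver microsomes (0.2 mg/mL) at 37 °C with compound at 1–20 μmol/L (four points). IC50 was calculated by logistic model relative to the DMSO control.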
# CYP3A4 = biological target: T3, CYP3A4 (Homo sapiens, UniProt P08684); experiment: CYP inhibition test (CYP3A4); format: in vitro ADME; conditions: pooled human liver microsomes; terfenadine hydroxylation
# T3 construct: The commercially available pooled human liver microsomes are used as an enzyme resource; from tissue; host or cells: pooled human liver microsomes
# How it was run: as §1
# Solubility test = format: physicochemical; conditions: for solubility kinetic at 1 h: kinetic from dmso stock
# How it was run: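 Dissolved concentration determined by LC/MS or SPE/MS (absolute calibration) in diluted filtrates, after 2 μL of 10 mmol/L DMSO stock was added to 198 μL JP 1st or JP 2nd fluid and equilibrated either 1 h with shaking at room temperature or 16 h standing at 25 °C.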
# CYP1A2 = biological target: T4, CYP1A2 (Homo sapiens, UniProt P05177); experiment: CYP inhibition test (CYP1A2); format: in vitro ADME; conditions: pooled human liver microsomes; 7-ethoxyresorufin O-deethylation
# T4 construct: The commercially available pooled human liver microsomes are used as an enzyme resource; from tissue; host or cells: pooled human liver microsomes
# T4 sequence (P05177 1-516): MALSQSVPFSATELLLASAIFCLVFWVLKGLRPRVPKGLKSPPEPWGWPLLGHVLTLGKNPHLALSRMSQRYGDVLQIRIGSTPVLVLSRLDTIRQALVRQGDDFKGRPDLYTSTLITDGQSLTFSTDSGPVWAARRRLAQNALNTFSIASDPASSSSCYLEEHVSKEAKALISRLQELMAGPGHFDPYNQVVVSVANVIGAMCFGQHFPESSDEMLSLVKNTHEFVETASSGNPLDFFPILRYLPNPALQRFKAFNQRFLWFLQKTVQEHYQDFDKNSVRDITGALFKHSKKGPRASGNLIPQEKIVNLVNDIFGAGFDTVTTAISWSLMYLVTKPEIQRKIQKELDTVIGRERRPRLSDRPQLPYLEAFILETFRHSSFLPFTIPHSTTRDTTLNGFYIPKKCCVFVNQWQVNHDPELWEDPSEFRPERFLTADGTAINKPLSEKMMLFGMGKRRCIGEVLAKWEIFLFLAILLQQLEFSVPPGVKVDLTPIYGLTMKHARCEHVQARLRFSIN
# How it was run: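 Inhibition of CYP1A2 was measured in commercially available pooled human liver microsomes (0.2 mg protein/mL) using 7-ethoxyresorufin O-deethylation with 0.5 μmol/L ethoxyresorufin. Test compound at 1, 5, 10, 20 μmol/L in […] Hepes buffer was incubated at 37° C. after NADPH addition; methanol/acetonitrile=1/1 (v/v) stopped the reaction, and resorufin was read fluorescently.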
# [2] = JP 1st fluid, pH 1.2, simulated gastric fluid, read-out: JP1
# T3 sequence (P08684 whole entry): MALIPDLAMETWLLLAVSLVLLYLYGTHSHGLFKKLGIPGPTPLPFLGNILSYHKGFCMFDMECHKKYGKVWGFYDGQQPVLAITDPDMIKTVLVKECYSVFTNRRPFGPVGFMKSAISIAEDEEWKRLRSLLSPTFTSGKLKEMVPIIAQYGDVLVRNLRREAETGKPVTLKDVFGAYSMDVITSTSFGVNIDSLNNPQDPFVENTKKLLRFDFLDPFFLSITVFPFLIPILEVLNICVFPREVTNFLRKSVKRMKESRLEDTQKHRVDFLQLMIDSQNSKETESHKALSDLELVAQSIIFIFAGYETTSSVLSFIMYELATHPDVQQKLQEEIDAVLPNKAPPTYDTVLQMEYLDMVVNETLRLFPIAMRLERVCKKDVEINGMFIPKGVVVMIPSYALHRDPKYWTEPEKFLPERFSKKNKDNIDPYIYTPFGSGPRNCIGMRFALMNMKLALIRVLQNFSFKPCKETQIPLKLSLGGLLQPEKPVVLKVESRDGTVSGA
# T2 sequence (P33261 whole entry): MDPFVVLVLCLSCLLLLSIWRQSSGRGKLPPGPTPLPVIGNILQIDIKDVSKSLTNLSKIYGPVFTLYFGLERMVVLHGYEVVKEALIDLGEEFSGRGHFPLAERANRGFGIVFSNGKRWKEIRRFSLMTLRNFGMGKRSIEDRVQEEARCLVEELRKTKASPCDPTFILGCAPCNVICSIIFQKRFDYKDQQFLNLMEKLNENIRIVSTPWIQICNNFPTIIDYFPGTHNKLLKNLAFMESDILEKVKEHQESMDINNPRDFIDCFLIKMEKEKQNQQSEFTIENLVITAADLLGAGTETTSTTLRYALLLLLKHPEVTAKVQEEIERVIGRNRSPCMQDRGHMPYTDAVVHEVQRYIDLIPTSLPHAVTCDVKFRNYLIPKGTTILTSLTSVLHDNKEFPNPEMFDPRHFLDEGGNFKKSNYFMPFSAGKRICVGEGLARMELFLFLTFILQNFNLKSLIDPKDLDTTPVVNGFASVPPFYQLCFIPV
# T1 sequence (Q12809 whole entry): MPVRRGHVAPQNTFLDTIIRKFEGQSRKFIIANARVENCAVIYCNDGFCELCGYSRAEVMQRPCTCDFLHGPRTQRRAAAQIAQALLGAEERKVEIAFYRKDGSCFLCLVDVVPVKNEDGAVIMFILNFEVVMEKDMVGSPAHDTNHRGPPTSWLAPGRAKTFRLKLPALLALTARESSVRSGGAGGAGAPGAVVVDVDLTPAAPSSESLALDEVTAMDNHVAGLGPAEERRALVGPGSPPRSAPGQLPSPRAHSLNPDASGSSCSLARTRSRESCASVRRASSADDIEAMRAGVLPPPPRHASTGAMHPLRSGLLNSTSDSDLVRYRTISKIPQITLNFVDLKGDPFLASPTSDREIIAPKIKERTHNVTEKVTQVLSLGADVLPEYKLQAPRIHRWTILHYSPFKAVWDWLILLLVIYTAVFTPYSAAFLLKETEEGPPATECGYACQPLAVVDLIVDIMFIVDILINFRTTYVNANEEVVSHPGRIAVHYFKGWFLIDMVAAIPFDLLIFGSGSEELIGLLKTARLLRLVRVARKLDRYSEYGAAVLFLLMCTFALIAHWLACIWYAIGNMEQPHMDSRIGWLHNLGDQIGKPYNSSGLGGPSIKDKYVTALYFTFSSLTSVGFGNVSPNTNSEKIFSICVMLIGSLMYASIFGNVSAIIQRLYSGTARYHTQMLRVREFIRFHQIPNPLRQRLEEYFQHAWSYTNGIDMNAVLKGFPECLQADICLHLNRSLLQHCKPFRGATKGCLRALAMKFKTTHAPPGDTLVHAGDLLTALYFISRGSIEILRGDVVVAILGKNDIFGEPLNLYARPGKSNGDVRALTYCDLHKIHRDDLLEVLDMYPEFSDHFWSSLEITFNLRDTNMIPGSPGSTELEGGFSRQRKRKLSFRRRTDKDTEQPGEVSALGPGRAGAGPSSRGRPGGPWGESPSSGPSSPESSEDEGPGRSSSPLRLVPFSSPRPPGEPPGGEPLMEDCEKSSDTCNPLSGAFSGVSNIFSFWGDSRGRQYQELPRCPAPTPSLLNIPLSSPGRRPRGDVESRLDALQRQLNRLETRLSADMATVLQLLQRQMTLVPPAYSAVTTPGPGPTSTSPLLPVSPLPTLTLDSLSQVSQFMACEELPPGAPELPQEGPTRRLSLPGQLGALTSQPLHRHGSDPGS
remaining % (Metabolic stability test),IC50 (CYP2C19),IC50 (CYP3A4),solubility kinetic at 1 h (Solubility test; [2]),"solubility kinetic at 16 h (Solubility test; solubility in JP 2nd fluid B, 1% DMSO, *2: shaken for 1 hour at room temperature, read-out: JP2_μM)",IC50 (CYP1A2),"solubility kinetic at 1 h (Solubility test; JP 2nd fluid B, pH 6.8, aqueous buffer, read-out: JP2_μM)",Structure (SMILES),hERG_3 uM_% [1]
67%,≥ 20 µM,≥ 10 µM,> 50 µM,>50 µM,≥ 20 µM,,CC[C@H]1SC(N)=N[C@](C)(c2cc(NC(=O)c3cnc(OCF)cn3)ccc2F)[C@H]1F [Compound I-66],27.1%
101%,≥ 20 µM,≥ 10 µM,> 50 µM,,≥ 20 µM,19.3 µM,C[C@]1(c2cc(NC(=O)c3ccc(C#N)cn3)ccc2F)N=C(N)O[C@H](C(F)(F)C2CC2)[C@@H]1F [Compound I-81],49.3%
